The subject of the assay is Bmi-1 protein. Kind of assay: Sandwich ELISA Assay (Bmi-1 protein level in HT-1080 cells). It counts as cell-based. On the procedure: Cell Seeding and Compound Treatment (Day 1):
HT-1080 cells were seeded at 8000 cells/well (50 μL) in 96-well tissue culture plates. After the cells became adherent (3-4 hours), 2× diluted stocks of test compounds in 50 μL DMEM containing 1% DMSO (final DMSO concentration was 0.5%) were added and the plates were incubated at 37° C. under 5% CO2 for 40-48 hours.
ELISA Plate First Antibody Preparation (Day 2):
The First Antibody (Millipore Mouse, monoclonal to mouse Bmi-1, clone F6, catalog #05-637) diluted to 2 μg/mL in PBS was added (100 μL) to each well of a Nunc MaxiSorp 96-well ELISA plate. The plate was covered with a plate seal and allowed to stand overnight.
Cell Lysate Preparation (Day 3):
Fresh Lysis buffer (1×) was prepared on the day of the assay as follows: 1 mM EDTA, 150 mM NaCl, 0.5% Triton-X 100, 10 mM NaF, 20 mM B-Glycerophosphate, 1 mM DTT (in PBS, pH 7.2-7.4) and HALT protease inhibitor cocktail (1×) (Pierce #78410).
Lysis Buffer (1×, 40 μL) was added to each well and the plate was shaken for 5-10 minutes on an orbital shaker to allow cell lysis, then diluent (1% BSA in PBS in 0.5% NP40) (100 μL) was added to each well.
A standard curve was prepared at the following Bmi-1 concentrations: 8000, 4000, 2000, 1000, 500, 250, 125 and 0 pg/mL. The Bmi-1 Recombinant Protein Standard (Novus Biologicals PCGF4 Recombinant Protein (P01), catalog # H00000648-P01) used to prepare the standard curve was stored at −80° C. On first thaw, the Recombinant Protein Standard was diluted to 10 μg/μL in Blocking Buffer (1% BSA in PBS; BSA: Fisher Scientific Catalog #1600-100). Aliquots were taken and refrozen at −80° C. The aliquots may be kept at 4° C. and reused after first thaw, but only within 1-2 weeks. The Recombinant Protein Standard contains a GST-fusion tag that appears at approximately 70 Kda on Western Blot.
The prepared ELISA plate was washed 3× with Wash Buffer (0.05% Tween-20 in PBS). The final wash was removed from the plate and the plate was blotted dry. Blocking Buffer (300 μL) (1% BSA in PBS) was added to each well. The plate was covered with a plate seal and incubated at room temperature for 1 hour. The blocked plate was washed 3× with Wash Buffer, then the final wash was removed and the plate was blotted dry. The previously prepared samples and standards were added (100 μL/well) and the plate was covered with a plate seal and incubated at 4° C. overnight.
The prepared ELISA plate was removed from incubation and allowed to stand at room temperature for 30 minutes, then washed and blotted dry. The Second Antibody (Cell Signaling Rabbit anti-Bmi-1, Cat#2830) diluted to 1:600 in Blocking Buffer was added (100 μL) to each well, except as needed for background control wells. The plate was covered with a plate seal and incubated for 1.5 hrs at room temperature.
The ELISA plate was washed and blotted dry as previously described. The Third Antibody (Cell Signaling HRP conjugated anti-rabbit IgG (CellSignaling, Cat#:7074) diluted to 1:300 in Blocking Buffer was added (100 μL) to each well, except as needed for background control wells. The plate was incubated for 1 hr at room temperature.
The plate was washed and blotted dry, then a previously prepared TMB substrate (TMB substrate kit, Pierce catalog #34021) (prepared by mixing kit reagents 1:1) (100 μL) was added per well. The plate was incubated for 20-30 minutes at room temperature in the dark, then Stop Solution (2 M sulfuric acid in water) (50 μL) was added per well. The plates were read at OD450 (experimental) and OD570 (reference).
(In general: An ELISA detects its analyte on a solid surface through an enzyme-linked reagent.)
In the case of `Cc1nc2ncc(Cl)cc2n1-c1cc(N)nc(Nc2ccc(C(F)(F)F)cc2)n1` [Cpd 31, 6-(6-chloro-2-methyl-1H-imidazo[4,5-b]pyridin-1-yl)-N^2-[4-(trifluoromethyl)phenyl]pyrimidine-2,4-diamine], the concentration giving a half-maximal response (EC50) (as a rule, the concentration at which the effect is half-maximal) lay within 1 to 10 nM.
`CCc1nc2ncc(Cl)cc2n1-c1cc(N)nc(Nc2ccc(C(F)(F)F)cc2)n1` [Cpd 32, 6-(6-chloro-2-ethyl-1H-imidazo[4,5-b]pyridin-1-yl)-N^2-[4-(trifluoromethyl)phenyl]pyrimidine-2,4-diamine]: the EC50 lay in the range of 10 to 100 nM.
In the case of `Cc1nc2c(F)cc(F)cc2n1-c1cc(N)nc(Nc2ccc(C(F)(F)F)cc2)n1` [Cpd 34, 6-(4,6-difluoro-2-methyl-1H-benzimidazol-1-yl)-N^2-[4-(trifluoromethyl)phenyl]pyrimidine-2,4-diamine], the EC50 was 10 to 100 nM.
Compound `Cc1nc2c(F)cccc2n1-c1cc(N)nc(Nc2ccc(C(F)(F)F)cc2)n1` [Cpd 35, 6-(4-fluoro-2-methyl-1H-benzimidazol-1-yl)-N^2-[4-(trifluoromethyl)phenyl]pyrimidine-2,4-diamine] yielded a concentration for a half-maximal effect (EC50) of 10 to 100 nM.
For the compound `Cc1nc2ccccc2n1-c1cc(Cl)nc(Nc2ccc(C(F)(F)F)nc2)n1` [Cpd 36, 4-chloro-6-(2-methyl-1H-benzimidazol-1-yl)-N-[6-(trifluoromethyl)pyridin-3-yl]pyrimidin-2-amine], the 50% effective concentration (EC50) lay in the range of 100 to 3000 nM.
The value for `Cc1nc2ccccc2n1-c1cc(N)nc(Nc2ccc(C(F)(F)F)nc2)n1` [Cpd 37, 6-(2-methyl-1H-benzimidazol-1-yl)-N^2-[6-(trifluoromethyl)pyridin-3-yl]pyrimidine-2,4-diamine] was 10 to 100 nM; that for `Cc1nc2ccc(F)cc2n1-c1cc(Cl)nc(Nc2ccc(C(F)(F)F)nc2)n1` [Cpd 38, 4-chloro-6-(6-fluoro-2-methyl-1H-benzimidazol-1-yl)-N-[6-(trifluoromethyl)pyridin-3-yl]pyrimidin-2-amine] was 100 to 3000 nM; that for `Cc1nc2cc(F)ccc2n1-c1cc(N)nc(Nc2ccc(C(F)(F)F)nc2)n1` [Cpd 39, 6-(5-fluoro-2-methyl-1H-benzimidazol-1-yl)-N^2-[6-(trifluoromethyl)pyridin-3-yl]pyrimidine-2,4-diamine] was 10 to 100 nM.
`Cc1nc2ccc(F)cc2n1-c1cc(N)nc(Nc2ccc(C(F)(F)F)nc2)n1` [Cpd 40, 6-(6-fluoro-2-methyl-1H-benzimidazol-1-yl)-N^2-[6-(trifluoromethyl)pyridin-3-yl]pyrimidine-2,4-diamine] displayed a 50% effective concentration (EC50) of 10 to 100 nM.
`Cc1nc2ccc(Br)cc2n1-c1cc(N)nc(Nc2ccc(C(F)(F)F)cc2)n1` [Cpd 41, 6-(6-bromo-2-methyl-1H-benzimidazol-1-yl)-N^2-[4-(trifluoromethyl)phenyl]pyrimidine-2,4-diamine] showed an EC50 of 10 to 100 nM.
Regarding `Cc1ccc2nc(C)n(-c3cc(N)nc(Nc4ccc(C(F)(F)F)cc4)n3)c2c1` [Cpd 42, 6-(2,6-dimethyl-1H-benzimidazol-1-yl)-N^2-[4-(trifluoromethyl)phenyl]pyrimidine-2,4-diamine], the half-maximal effective concentration (EC50) lay within 10 to 100 nM.
For the compound `CCc1nc2cc(F)ccc2n1-c1cc(N)nc(Nc2ccc(C(F)(F)F)nc2)n1` [Cpd 43, 6-(2-ethyl-5-fluoro-1-benzimidazol-1-yl)-N^2-[6-(trifluoromethyl)pyridin-3-yl]pyrimidine-2,4-diamine], the EC50 lay within 10 to 100 nM.
For `CCc1nc2ccc(F)cc2n1-c1cc(N)nc(Nc2ccc(C(F)(F)F)nc2)n1` [Cpd 44, 6-(2-ethyl-6-fluoro-1H-benzimidazol-1-yl)-N^2-[6-(trifluoromethyl)pyridin-3-yl]pyrimidine-2,4-diamine], the concentration for a half-maximal effect (EC50) was 10 to 100 nM.
On to `Cc1nc2ccc(Cl)cc2n1-c1cc(N)nc(Nc2ccc(C(F)(F)F)cc2)n1` [Cpd 45, 6-(6-chloro-2-methyl-1H-benzimidazol-1-yl)-N^2-[4-(trifluoromethyl)phenyl]pyrimidine-2,4-diamine], for which the half-maximal effective concentration (EC50) fell in the range of 10 to 100 nM.
`Cc1nc2ccc(Cl)cc2n1-c1cc(O)nc(Nc2ccc(C(F)(F)F)cc2)n1` [Cpd 46, 6-(6-chloro-2-methyl-1H-benzimidazol-1-yl)-2-{[4-(trifluoromethyl)phenyl]amino}pyrimidin-4-ol] had a 50% effective concentration (EC50) of 100 to 3000 nM.
For `Cc1nc2cc(Cl)ccc2n1-c1cc(N)nc(Nc2ccc(C(F)(F)F)cc2)n1` [Cpd 47, 6-(5-chloro-2-methyl-1H-benzimidazol-1-yl)-N^2-[4-(trifluoromethyl)phenyl]pyrimidine-2,4-diamine], the EC50 is 100 to 3000 nM.
Next, `Cc1nc2ncc(F)cn2c1-c1cc(N)nc(Nc2ccc(C(F)(F)F)cc2)n1` [Cpd 48, 6-(6-fluoro-2-methylimidazo[1,2-a]pyrimidin-3-yl)-N^2-[4-(trifluoromethyl)phenyl]pyrimidine-2,4-diamine]: 10 to 100 nM.
In turn, `Cc1nc2cc(F)cc(F)c2n1-c1cc(N)nc(Nc2ccc(OC(F)F)cc2)n1` [Cpd 49, N^2-[4-(difluoromethoxy)phenyl]-6-(5,7-difluoro-2-methyl-1H-benzimidazol-1-yl)pyrimidine-2,4-diamine] registered an EC50 of 100 to 3000 nM.
`Nc1cc(-c2c(C(F)(F)F)nc3ccc(F)cn23)nc(Nc2ccc(C(F)(F)F)cc2)n1` [Cpd 50, 6-[6-fluoro-2-(trifluoromethyl)imidazo[1,2-a]pyridin-3-yl]-N^2-[4-(trifluoromethyl)phenyl]pyrimidine-2,4-diamine] returned a concentration for a half-maximal effect (EC50) of 10 to 100 nM.
For the compound `Cc1nc2c(F)cccc2n1-c1cc(N)nc(Nc2ccc(OC(F)F)cc2)n1` [Cpd 51, N^2-[4-(difluoromethoxy)phenyl]-6-(4-fluoro-2-methyl-1H-benzimidazol-1-yl)pyrimidine-2,4-diamine], the EC50 fell in the range of 10 to 100 nM.
As for `Cc1cc(Nc2nc(N)cc(-n3c(C)nc4c(F)cccc43)n2)ccc1C(F)(F)F` [Cpd 52, 6-(4-fluoro-2-methyl-1H-benzimidazol-1-yl)-N^2-[3-methyl-4-(trifluoromethyl)phenyl]pyrimidine-2,4-diamine], the EC50 fell in the range of 100 to 3000 nM.
`Cc1ccc2nc(C)n(-c3cc(N)nc(Nc4ccc(C(F)(F)F)c(C)c4)n3)c2c1` [Cpd 53, 6-(2,6-dimethyl-1H-benzimidazol-1-yl)-N^2-[3-methyl-4-(trifluoromethyl)phenyl]pyrimidine-2,4-diamine] showed a half-maximal effective concentration (EC50) of 10 to 100 nM.
Next, `Cc1ccc2nc(C)n(-c3cc(N)nc(Nc4ccc(OC(F)F)cc4)n3)c2c1` [Cpd 54, N^2-[4-(difluoromethoxy)phenyl]-6-(2,6-dimethyl-1H-benzimidazol-1-yl)pyrimidine-2,4-diamine]: 1 to 10 nM.
Next, `Nc1cc(-c2c(C(F)(F)F)nc3ccc(F)cn23)nc(Nc2ccc(OC(F)F)cc2)n1` [Cpd 55, N^2-[4-(difluoromethoxy)phenyl]-6-[6-fluoro-2-(trifluoromethyl)imidazo[1,2-a]pyridin-3-yl]pyrimidine-2,4-diamine]: 10 to 100 nM.
Regarding `Cc1nc2ccccc2n1-c1nc(Nc2ccc(C(F)(F)F)cc2)nc(N)c1F` [Cpd 56, 5-fluoro-6-(2-methyl-1H-benzimidazol-1-yl)-N^2-[4-(trifluoromethyl)phenyl]pyrimidine-2,4-diamine], the concentration giving a half-maximal response (EC50) was 100 to 3000 nM.
`CCc1nc2ccccc2n1-c1nc(Nc2ccc(C(F)(F)F)cc2)nc(N)c1F` [Cpd 57, 6-(2-ethyl-1H-benzimidazol-1-yl)-5-fluoro-N^2-[4-(trifluoromethyl)phenyl]pyrimidine-2,4-diamine] came in with a concentration for a half-maximal effect (EC50) of 10 to 100 nM.
The compound `Cc1nc2ccc(F)cc2n1-c1nc(Nc2ccc(C(F)(F)F)cc2)nc(N)c1F` [Cpd 58, 5-fluoro-6-(6-fluoro-2-methyl-1H-benzimidazol-1-yl)-N^2-[4-(trifluoromethyl)phenyl]pyrimidine-2,4-diamine] showed an EC50 of 100 to 3000 nM.

The values are drawn from US10370371B2, “Substituted pyrimidine Bmi-1 inhibitors” (PTC Therapeutics, Inc., priority 2013, dated 2019).
